Values joined by “and” are separate entries in the source; they are usually repeats but may differ in a detail not shown here. Equal values may be shown once. Toxic doses and inconclusive results are not listed.
System: BDF1 mice, P388 leukemia ip, median survival T/C
Test: NCI In Vivo Anticancer Drug Screen. Data for tumor model P388 Leukemia (intraperitoneal) in B6D2F1 (BDF1) mice
Settings: endpoint: median survival time, higher = longer survival
How it was run: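 Survival ratio, drug arm over vehicle arm, in mice with a transplanted tumour.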

[1] = dose: 100.0 mg/kg/injection, schedule: Q01DX001 (ip), vehicle: saline
[2] = dose: 200.0 mg/kg/injection, schedule: Q01DX001 (ip), vehicle: saline
[3] = dose: 100.0 mg/kg/injection, schedule: Q01DX009 (ip), vehicle: saline with Tween-80
[4] = dose: 200.0 mg/kg/injection, schedule: Q01DX009 (ip), vehicle: saline with Tween-80
[5] = dose: 400.0 mg/kg/injection, schedule: Q01DX009 (ip), vehicle: saline with Tween-80
[6] = dose: 100.0 mg/kg/injection, schedule: Q04DX003 (ip), vehicle: Klucel (hydroxypropylcellulose) (HPC)
[7] = dose: 200.0 mg/kg/injection, schedule: Q04DX003 (ip), vehicle: Klucel (hydroxypropylcellulose) (HPC)
[8] = dose: 400.0 mg/kg/injection, schedule: Q04DX003 (ip), vehicle: Klucel (hydroxypropylcellulose) (HPC)
[9] = dose: 100.0 mg/kg/injection, schedule: Q04DX003 (ip), vehicle: saline with Tween-80
[10] = dose: 200.0 mg/kg/injection, schedule: Q04DX003 (ip), vehicle: saline with Tween-80
[11] = dose: 400.0 mg/kg/injection, schedule: Q04DX003 (ip), vehicle: saline with Tween-80
[12] = dose: 50.0 mg/kg/injection, schedule: Q01DX009 (ip), vehicle: saline with Tween-80
[13] = dose: 25.0 mg/kg/injection, schedule: Q04DX003 (ip), vehicle: other
[14] = dose: 50.0 mg/kg/injection, schedule: Q04DX003 (ip), vehicle: other
[15] = dose: 400.0 mg/kg/injection, schedule: Q01DX001 (ip), vehicle: saline
[16] = dose: 100.0 mg/kg/injection, schedule: Q01DX001 (ip), vehicle: saline sonified
[17] = dose: 200.0 mg/kg/injection, schedule: Q01DX001 (ip), vehicle: saline sonified
[18] = dose: 400.0 mg/kg/injection, schedule: Q01DX001 (ip), vehicle: saline sonified

COc1cc(C(C2=C(O)c3ccccc3C(=O)C2=O)C2=C(O)c3ccccc3C(=O)C2=O)cc(Br)c1O
T/C (dose: 33.0 mg/kg/injection, schedule: Q01DX001 (ip), vehicle: saline): 95 % of control
T/C (dose: 50.0 mg/kg/injection, schedule: Q01DX001 (ip), vehicle: saline): 104 % of control
T/C (dose: 75.0 mg/kg/injection, schedule: Q01DX001 (ip), vehicle: saline): 100 % of control
T/C [1]: 115 % of control
T/C [2]: 110 % of control

CCN(CC)S(=O)(=O)c1ccc(-c2cc(Cl)c3cc(S(=O)(=O)F)ccc3n2)cc1
T/C [3]: 110 % of control
T/C [4]: 90 % of control
T/C [5]: 100 % of control

O=C1c2ccccc2C(=O)N1N(c1ccccc1)c1ccccc1
T/C (dose: 100.0 mg/kg/injection, schedule: Q01DX009 (ip), vehicle: Klucel (hydroxypropylcellulose) (HPC)): 104 % of control
T/C [6]: 110 % of control
T/C [7]: 120 % of control
T/C (dose: 400.0 mg/kg/injection, schedule: Q01DX009 (ip), vehicle: Klucel (hydroxypropylcellulose) (HPC)): 100 % of control
T/C [8]: 105 % of control

CCOc1ccc(Br)cc1C=O
T/C [3]: 100 % of control
T/C [9]: 90 % of control
T/C [4]: 100 % of control
T/C [10]: 95 % of control
T/C [5]: 100 % of control
T/C [11]: 100 % of control

CCN(CC)c1nc(N(C)C)nc(N(C)C)n1
T/C [12]: 105 % of control
T/C [3]: 99 % of control
T/C [4]: 104 % of control
T/C [5]: 117 % of control

O=S(=O)(O)C1CCCCC1O (stereo not drawn)
T/C (dose: 100.0 mg/kg/injection, schedule: Q04DX002 (ip), vehicle: saline with Tween-80): 98 % of control
T/C (dose: 200.0 mg/kg/injection, schedule: Q04DX002 (ip), vehicle: saline with Tween-80): 101 % of control

O=P(N1CC=CCC1)(N1CC1)N1CC1
T/C (dose: 2.2 mg/kg/injection, schedule: Q01DX009 (ip), vehicle: saline): 115 % of control
T/C (dose: 3.3 mg/kg/injection, schedule: Q01DX009 (ip), vehicle: saline): 105 % of control
T/C (dose: 5.0 mg/kg/injection, schedule: Q01DX009 (ip), vehicle: saline): 161 % of control
T/C (dose: 6.25 mg/kg/injection, schedule: Q01DX009 (ip), vehicle: saline): 190 % of control
T/C (dose: 7.5 mg/kg/injection, schedule: Q01DX009 (ip), vehicle: saline): 195 % of control
T/C (dose: 12.5 mg/kg/injection, schedule: Q01DX009 (ip), vehicle: saline): 245 % of control and 191 % of control
T/C (dose: 25.0 mg/kg/injection, schedule: Q01DX009 (ip), vehicle: saline): 87 % of control and 90 % of control

Cc1ccc(S(=O)(=O)OC2CCCCCCCCCCC2=O)cc1 (stereo not drawn)
T/C [13]: 99 % of control
T/C [14]: 96 % of control
T/C (dose: 100.0 mg/kg/injection, schedule: Q04DX003 (ip), vehicle: other): 95 % of control

O=[N+]([O-])c1ccc(N2CCN=N2)cc1
T/C (dose: 25.0 mg/kg/injection, schedule: Q01DX010 (ip), vehicle: saline): 104 % of control
T/C (dose: 25.0 mg/kg/injection, schedule: Q04DX003 (ip), vehicle: saline sonified): 100 % of control
T/C (dose: 50.0 mg/kg/injection, schedule: Q01DX010 (ip), vehicle: saline): 123 % of control
T/C (dose: 50.0 mg/kg/injection, schedule: Q04DX003 (ip), vehicle: saline sonified): 95 % of control
T/C (dose: 100.0 mg/kg/injection, schedule: Q04DX003 (ip), vehicle: saline sonified): 86 % of control

O=C(Nc1ccccc1)C1(Br)CC2(C1)CC(Br)(C(=O)Nc1ccccc1)C2 (stereo not drawn)
T/C (dose: 100.0 mg/kg/injection, schedule: Q01DX001 (ip), vehicle: saline with Tween-80): 92 % of control
T/C (dose: 200.0 mg/kg/injection, schedule: Q01DX001 (ip), vehicle: saline with Tween-80): 99 % of control

[Cl][Pd][Cl].[NH-]CC[NH-]
T/C (dose: 6.0 mg/kg/injection, schedule: Q01DX009 (ip), vehicle: saline with Tween-80): 104 % of control
T/C (dose: 12.0 mg/kg/injection, schedule: Q01DX009 (ip), vehicle: saline with Tween-80): 104 % of control
T/C (dose: 25.0 mg/kg/injection, schedule: Q01DX009 (ip), vehicle: saline with Tween-80): 100 % of control
T/C [3]: 118 % of control
T/C [9]: 100 % of control
T/C [10]: 118 % of control
T/C [11]: 113 % of control

Cc1cc2nc(N)sc2cc1C
T/C (dose: 12.5 mg/kg/injection, schedule: Q01DX009 (ip), vehicle: other): 115 % of control
T/C (dose: 25.0 mg/kg/injection, schedule: Q01DX009 (ip), vehicle: other): 105 % of control

CC(C)(C)/C([O-])=N/[N+](C)(C)Cc1ccccc1
T/C [1]: 109 % of control
T/C [2]: 104 % of control
T/C [15]: 104 % of control

CC1CC(C)(C)N=C(C(Cc2ccc(Br)cc2)c2ccccc2)O1 (stereo not drawn)
T/C [16]: 95 % of control
T/C [17]: 110 % of control
T/C [18]: 110 % of control

OC(Cc1nc2ccccc2nc1CC(O)(c1ccccc1)c1ccccc1)(c1ccccc1)c1ccccc1
T/C [12]: 90 % of control
T/C [3]: 98 % of control
T/C [4]: 106 % of control

CC(=O)O[C@H]1CC[C@@]2(C)C(=CC[C@H]3[C@@H]4CC[C@H](O)[C@@]4(C)CC[C@@H]32)C1
T/C [6]: 104 % of control
T/C [7]: 100 % of control
T/C [8]: 90 % of control

CC1CC(C)(C)N=C(CC(C)(O)c2ccccn2)O1 (stereo not drawn)
T/C [16]: 100 % of control
T/C [17]: 90 % of control
T/C [18]: 100 % of control

CC(=O)C1(O)Cc2c(O)c3c(c(O)c2C(O)C1)C(=O)c1c(OC(C)C)cccc1C3=O (stereo not drawn)
T/C (dose: 3.13 mg/kg/injection, schedule: Q04DX003 (ip), vehicle: other): 108 % of control
T/C (dose: 3.13 mg/kg/injection, schedule: Q04DX009 (ip), vehicle: other): 101 % of control
T/C (dose: 6.25 mg/kg/injection, schedule: Q04DX003 (ip), vehicle: other): 105 % of control
T/C (dose: 6.25 mg/kg/injection, schedule: Q04DX009 (ip), vehicle: other): 92 % of control
T/C (dose: 12.5 mg/kg/injection, schedule: Q04DX003 (ip), vehicle: other): 100 % of control
T/C (dose: 12.5 mg/kg/injection, schedule: Q04DX009 (ip), vehicle: other): 110 % of control
T/C [13]: 105 % of control
T/C (dose: 25.0 mg/kg/injection, schedule: Q04DX009 (ip), vehicle: other): 110 % of control
T/C [14]: 101 % of control
T/C (dose: 50.0 mg/kg/injection, schedule: Q04DX009 (ip), vehicle: other): 99 % of control

O=C(C=C(C(F)(F)F)C(F)(F)F)c1ccc([N+](=O)[O-])cc1
T/C (dose: 1.56 mg/kg/injection, schedule: Q01DX009 (ip), vehicle: other): 100 % of control
T/C (dose: 3.13 mg/kg/injection, schedule: Q01DX009 (ip), vehicle: other): 109 % of control
T/C (dose: 6.25 mg/kg/injection, schedule: Q01DX009 (ip), vehicle: other): 104 % of control

CC(=O)Nc1ccc(OC(=O)Nc2ccc(C)c(NC(=O)Oc3ccc(NC(C)=O)cc3)c2)cc1
T/C (dose: 50.0 mg/kg/injection, schedule: Q01DX005 (ip), vehicle: saline with Tween-80): 96 % of control
T/C (dose: 100.0 mg/kg/injection, schedule: Q01DX005 (ip), vehicle: saline with Tween-80): 102 % of control
T/C (dose: 200.0 mg/kg/injection, schedule: Q01DX005 (ip), vehicle: saline with Tween-80): 119 % of control

C/C=C/C(=O)OCC1CC[N+](C)([O-])C1 (stereo not drawn)
T/C [2]: 91 % of control
T/C (dose: 200.0 mg/kg/injection, schedule: Q01DX009 (ip), vehicle: saline): 117 % of control
T/C [15]: 91 % of control
T/C (dose: 800.0 mg/kg/injection, schedule: Q01DX001 (ip), vehicle: saline): 100 % of control
T/C (dose: 800.0 mg/kg/injection, schedule: Q01DX009 (ip), vehicle: saline): 99 % of control
T/C (dose: 1600.0 mg/kg/injection, schedule: Q01DX001 (ip), vehicle: saline): 95 % of control

Source: PubChem BioAssay AID328 (DTP/NCI, 2004)
